# pIC50: −log10 of the molar value.
# Test system: 186277-243-T-J2-PDC spheroids with HUVEC/MSC, viability
# Experiment: Anticancer human tumor 186277-243-T-J2-PDC patient-derived colon adenocarcinoma cell line growth inhibition [CLK]
# Settings: for pIC50: curve of first compound; for viability, T/C: stronger effect = lower value
# Outline: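 Multi-cell-type spheroids combined patient-derived tumor cells with HUVEC endothelial cells and human mesenchymal stem cells. Paired agents were dosed in half-log steps down from about clinical Cmax, or from 10 microM where Cmax was unknown.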
# [1] = second compound 0.0316 µM, first compound 0.0316 µM
# [2] = second compound 0.0316 µM, first compound 0.1 µM
# [3] = second compound 0.0316 µM, first compound 0.316 µM
# [4] = second compound 0.0316 µM, first compound 1 µM
# [5] = second compound 0.0316 µM, first compound 3.16 µM
# [6] = second compound 0.0316 µM, first compound 10 µM
# [7] = second compound 0.1 µM, first compound 0.0316 µM
# [8] = second compound 0.1 µM, first compound 0.1 µM
# [9] = second compound 0.1 µM, first compound 0.316 µM
# [10] = second compound 0.1 µM, first compound 1 µM
# [11] = second compound 0.1 µM, first compound 3.16 µM
# [12] = second compound 0.1 µM, first compound 10 µM
# [13] = second compound 0.316 µM, first compound 0.0316 µM
# [14] = second compound 0.316 µM, first compound 0.1 µM
# [15] = second compound 0.316 µM, first compound 0.316 µM
# [16] = second compound 0.316 µM, first compound 1 µM
# [17] = second compound 0.316 µM, first compound 3.16 µM
# [18] = second compound 0.316 µM, first compound 10 µM
# [19] = second compound 1 µM, first compound 0.0316 µM
# [20] = second compound 1 µM, first compound 0.1 µM
# [21] = second compound 1 µM, first compound 0.316 µM
# [22] = second compound 1 µM, first compound 1 µM
# [23] = second compound 1 µM, first compound 3.16 µM
# [24] = second compound 1 µM, first compound 10 µM
# [25] = second compound 3.16 µM, first compound 0.0316 µM
# [26] = second compound 3.16 µM, first compound 0.1 µM
# [27] = second compound 3.16 µM, first compound 0.316 µM
# [28] = second compound 3.16 µM, first compound 1 µM
# [29] = second compound 3.16 µM, first compound 3.16 µM
# [30] = second compound 3.16 µM, first compound 10 µM
# [31] = second compound 10 µM, first compound 0.0316 µM
# [32] = second compound 10 µM, first compound 0.1 µM
# [33] = second compound 10 µM, first compound 0.316 µM
# [34] = second compound 10 µM, first compound 1 µM
# [35] = second compound 10 µM, first compound 3.16 µM
# [36] = second compound 10 µM, first compound 10 µM
# 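Note: compound exposure lasted seven days before readout.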
# 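Throughout, for viability, T/C: 100% = DMSO vehicle control wells.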
structure (smiles),measurement,setting,value
C=CC(=O)N1CCN(c2nc(=O)n(-c3c(C)ccnc3C(C)C)c3nc(-c4c(O)cccc4F)c(F)cc23)C(C)C1 (stereo unspecified) + CNC(=O)c1ccc(Nc2nc(OC3CCCC3)c3c(-c4ccc5nc(C)oc5c4)c[nH]c3n2)c(OC)c1,pIC50,second compound 0.0316 µM,< 5.00
same,pIC50,second compound 0.1 µM,< 5.00
same,pIC50,second compound 0.316 µM,5.67
same,pIC50,second compound 1 µM,> 7.50
same,pIC50,second compound 3.16 µM,> 7.50
same,pIC50,second compound 10 µM,> 7.50
same,"viability, T/C",[1],91.3%
same,"viability, T/C",[2],89.6%
same,"viability, T/C",[3],100%
same,"viability, T/C",[4],86.2%
same,"viability, T/C",[5],114%
same,"viability, T/C",[6],110%
same,"viability, T/C",[7],77.3%
same,"viability, T/C",[8],79.4%
same,"viability, T/C",[9],77.7%
same,"viability, T/C",[10],77.8%
same,"viability, T/C",[11],72%
same,"viability, T/C",[12],58.2%
same,"viability, T/C",[13],55.5%
same,"viability, T/C",[14],51.2%
same,"viability, T/C",[15],48%
same,"viability, T/C",[16],57%
same,"viability, T/C",[17],47.4%
same,"viability, T/C",[18],38.5%
same,"viability, T/C",[19],39.4%
same,"viability, T/C",[20],39.4%
same,"viability, T/C",[21],39.3%
same,"viability, T/C",[22],34.7%
same,"viability, T/C",[23],38.3%
same,"viability, T/C",[24],28%
same,"viability, T/C",[25],38.4%
same,"viability, T/C",[26],38.2%
same,"viability, T/C",[27],34.9%
same,"viability, T/C",[28],34.3%
same,"viability, T/C",[29],34.9%
same,"viability, T/C",[30],23.8%
same,"viability, T/C",[31],35.4%
same,"viability, T/C",[32],33.5%
same,"viability, T/C",[33],36.3%
same,"viability, T/C",[34],37.8%
same,"viability, T/C",[35],37.1%
same,"viability, T/C",[36],24.4%
CC(CO)NC(=O)c1cc(-c2ccc(Cl)cc2)nn(-c2cnn(C)c2)c1=O (stereo unspecified) + CNC(=O)c1ccc(Nc2nc(OC3CCCC3)c3c(-c4ccc5nc(C)oc5c4)c[nH]c3n2)c(OC)c1,pIC50,second compound 0.0316 µM,< 5.00
same,pIC50,second compound 0.1 µM,< 5.00
same,pIC50,second compound 0.316 µM,> 7.50
same,pIC50,second compound 1 µM,> 7.50
same,pIC50,second compound 3.16 µM,> 7.50
same,pIC50,second compound 10 µM,> 7.50
same,"viability, T/C",[1],109%
same,"viability, T/C",[2],99.1%
same,"viability, T/C",[3],101%
same,"viability, T/C",[4],84.7%
same,"viability, T/C",[5],105%
same,"viability, T/C",[6],120%
same,"viability, T/C",[7],75.8%
same,"viability, T/C",[8],70.5%
same,"viability, T/C",[9],72.3%
same,"viability, T/C",[10],71.8%
same,"viability, T/C",[11],74%
same,"viability, T/C",[12],81.5%
same,"viability, T/C",[13],50%
same,"viability, T/C",[14],45.4%
same,"viability, T/C",[15],43.1%
same,"viability, T/C",[16],49%
same,"viability, T/C",[17],49.6%
same,"viability, T/C",[18],47.8%
same,"viability, T/C",[19],28.9%
same,"viability, T/C",[20],31.6%
same,"viability, T/C",[21],29.6%
same,"viability, T/C",[22],32.4%
same,"viability, T/C",[23],35.6%
same,"viability, T/C",[24],36%
same,"viability, T/C",[25],33.3%
same,"viability, T/C",[26],30.7%
same,"viability, T/C",[27],29.1%
same,"viability, T/C",[28],31.7%
same,"viability, T/C",[29],32%
same,"viability, T/C",[30],35%
same,"viability, T/C",[31],32.5%
same,"viability, T/C",[32],31.4%
same,"viability, T/C",[33],32%
same,"viability, T/C",[34],31.4%
same,"viability, T/C",[35],34.3%
same,"viability, T/C",[36],31.5%
COC1C=CCC(C)C(C)S(=O)(=O)NC(=O)c2ccc3c(c2)N(CC2CCC21)CC1(CCCc2cc(Cl)ccc21)CO3 (stereo unspecified) + CNC(=O)c1ccc(Nc2nc(OC3CCCC3)c3c(-c4ccc5nc(C)oc5c4)c[nH]c3n2)c(OC)c1,pIC50,second compound 0.0316 µM,5.45
same,pIC50,second compound 0.1 µM,7.05
same,pIC50,second compound 0.316 µM,> 7.50
same,pIC50,second compound 1 µM,> 7.50
same,pIC50,second compound 3.16 µM,> 7.50
same,pIC50,second compound 10 µM,> 7.50
same,"viability, T/C",[1],101%
same,"viability, T/C",[2],101%
same,"viability, T/C",[3],103%
same,"viability, T/C",[4],83%
same,"viability, T/C",[5],55.9%
same,"viability, T/C",[6],4.26%
same,"viability, T/C",[7],64%
same,"viability, T/C",[8],50.2%
same,"viability, T/C",[9],29.8%
same,"viability, T/C",[10],19.8%
same,"viability, T/C",[11],9.64%
same,"viability, T/C",[12],3.08%
same,"viability, T/C",[13],39.9%
same,"viability, T/C",[14],32%
same,"viability, T/C",[15],19.9%
same,"viability, T/C",[16],12.5%
same,"viability, T/C",[17],6.42%
same,"viability, T/C",[18],2.78%
same,"viability, T/C",[19],30.1%
same,"viability, T/C",[20],23.2%
same,"viability, T/C",[21],14.7%
same,"viability, T/C",[22],10.7%
same,"viability, T/C",[23],5.35%
same,"viability, T/C",[24],4.55%
same,"viability, T/C",[25],31.5%
same,"viability, T/C",[26],27%
same,"viability, T/C",[27],17.6%
same,"viability, T/C",[28],10.1%
same,"viability, T/C",[29],6.79%
same,"viability, T/C",[30],2.91%
same,"viability, T/C",[31],36.1%
same,"viability, T/C",[32],25.4%
same,"viability, T/C",[33],20.5%
same,"viability, T/C",[34],11.9%
same,"viability, T/C",[35],5.93%
same,"viability, T/C",[36],2.8%

# From PubChem BioAssay AID2060625 (Molecular Pharmacology Branch, DTP, NCI, 2025)
